Source: patent publication US20230167127A1, “COMPOUNDS AND THEIR USE IN THE TREATMENT OF BACTERIAL INFECTION” (Hoffmann-La Roche Inc., priority 2020, published 2023)
Where two headings read alike, the source gives them in different places.

Tested on: Escherichia coli ATCC 25922
Assay: 50% growth inhibitory concentration (IC50) determination, Iso-Sensitest broth dilution
Format: cell-based
Conditions: strain Escherichia coli ATCC 25922, 10-point broth dilution, optical density at 600 nm over 16 h, read-out: Escherichia coli growth inhibition IC50
How it was run: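 10-point twofold Iso-Sensitest broth dilution (e.g. 50 to 0.097 μM final) with DMSO stocks, incubated at 35±2° C. Growth followed by OD 600 nm every 20 min over 16 h; IC50 derived from growth inhibition during logarithmic phase.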

[1] = Escherichia coli, ATCC25922, 16 h

Row | Structure (SMILES) | IC50 [1] [nM] | IC50 [nM]
1 | O=C1COc2ncc(N3CC(CCNCC4Cc5cc(OCCn6ccnc6)cc(F)c5C4)OC3=O)nc2N1 (centres unmarked) [Example 332, 6-[5-[2-[[4-fluoro-6-(2-imidazol-1-ylethoxy)-2,3-dihydro-1H-inden-2-yl]methylamino]ethyl]-2-oxo-1,3-oxazolidin-3-yl]-4H-pyrazino[2,3-b][1,4]oxazin-3-one] | 184 | –
2 | O=C1COc2ncc(N3CC(C4CCN(C5Cc6cccc(F)c6C5)CC4)OC3=O)nc2N1 (centres unmarked) [Example 350, 6-[5-[1-(4-fluoro-2,3-dihydro-1H-inden-2-yl)piperidin-4-yl]-2-oxo-1,3-oxazolidin-3-yl]-4H-pyrazino[2,3-b][1,4]oxazin-3-one] | < 97.7 | –
3 | N#Cc1c(OCC2CNC2)ccc2c1CC(CNCCC1CN(c3ccc4c(n3)NC(=O)CO4)C(=O)O1)C2 (centres unmarked) [Example 129, 5-(azetidin-3-ylmethoxy)-2-[[2-[2-oxo-3-(3-oxo-4H-pyrido[3,2-b][1,4]oxazin-6-yl)-1,3-oxazolidin-5-yl]ethylamino]methyl]-2,3-dihydro-1H-indene-4-carbonitrile; formic acid] | 692 | –
4 | N#Cc1cccc2c1C(O)C(CNCCC1CN(c3ccc4c(n3)NC(=O)CO4)C(=O)O1)C2 (racemic) [Example 151, rac-2,3-trans-3-hydroxy-2-[[2-[2-oxo-3-(3-oxo-4H-pyrido[3,2-b][1,4]oxazin-6-yl)-1,3-oxazolidin-5-yl]ethylamino]methyl]-2,3-dihydro-1H-indene-4-carbonitrile; formic acid] | 140 | –
5 | N#Cc1cccc2c1CC(N[C@H]1C[C@@H](C3CN(c4ccc5c(n4)NC(=O)CO5)C(=O)O3)C1)C2 (stereo partly drawn) [Example 19, 2-[[cis-3-[2-oxo-3-(3-oxo-4H-pyrido[3,2-b][1,4]oxazin-6-yl)-1,3-oxazolidin-5-yl]cyclobutyl]amino]-2,3-dihydro-1H-indene-4-carbonitrile; formic acid] | 449 | –
6 | NC1CC(NC2Cc3cccc(F)c3C2)CCC12CN(c1ccc3c(n1)NC(=O)CO3)C(=O)O2 (racemic) [Example 167, 6-[rac-5,6-cis-5,8-trans-6-amino-8-[(4-fluoro-2,3-dihydro-1H-inden-2-yl)amino]-2-oxo-1-oxa-3-azaspiro[4.5]decan-3-yl]-4H-pyrido[3,2-b][1,4]oxazin-3-one; 2,2,2-trifluoroacetic acid] | 190 | –
7 | Nc1nnnn1CCOc1cc(F)c2c(c1)CC(CNCCC1CN(c3cnc4c(n3)NC(=O)CO4)C(=O)O1)C2 (centres unmarked) [Example 294, 6-[5-[2-[[6-[2-(5-aminotetrazol-1-yl)ethoxy]-4-fluoro-2,3-dihydro-1H-inden-2-yl]methylamino]ethyl]-2-oxo-1,3-oxazolidin-3-yl]-4H-pyrazino[2,3-b][1,4]oxazin-3-one; formic acid] | 727 | –
8 | Cn1nnc(COc2cc(C#N)c3c(c2)CC(CNCCC2CN(c4cnc5c(n4)NC(=O)CO5)C(=O)O2)C3)n1 (centres unmarked) [Example 389, 6-[(2-methyltetrazol-5-yl)methoxy]-2-[[2-[2-oxo-3-(3-oxo-4H-pyrazino[2,3-b][1,4]oxazin-6-yl)-1,3-oxazolidin-5-yl]ethylamino]methyl]-2,3-dihydro-1H-indene-4-carbonitrile] | < 97.7 | –
9 | O=C1COc2ncc(N3CC(CCNCC4Cc5c(F)cnc(-c6cn[nH]c6)c5C4)OC3=O)nc2N1 (centres unmarked) [Example 432, 6-[5-[2-[[4-fluoro-1-(1H-pyrazol-4-yl)-6,7-dihydro-5H-cyclopenta[c]pyridin-6-yl]methylamino]ethyl]-2-oxo-1,3-oxazolidin-3-yl]-4H-pyrazino[2,3-b][1,4]oxazin-3-one] | 120 | –
10 | O=C1COc2ncc(N3CC(CCNCC4Cc5cc(O)cc(F)c5C4)OC3=O)nc2N1 (centres unmarked) [Example 317, 6-[5-[2-[(4-Fluoro-6-hydroxy-2,3-dihydro-1H-inden-2-yl)methylamino]ethyl]-2-oxo-1,3-oxazolidin-3-yl]-4H-pyrazino[2,3-b][1,4]oxazin-3-one] | < 97.7 | –
11 | N#Cc1cccc2c1CC(CNCCC1(CN)CN(c3ccc4c(n3)NC(=O)CO4)C(=O)O1)C2 (centres unmarked) [Example 243, 2-[[2-[5-(aminomethyl)-2-oxo-3-(3-oxo-4H-pyrido[3,2-b][1,4]oxazin-6-yl)-1,3-oxazolidin-5-yl]ethylamino]methyl]-2,3-dihydro-1H-indene-4-carbonitrile] | 199 | –
12 | Cc1nc(Cl)c2c(c1F)CC(CNCCC1CN(c3ccc4c(n3)NC(=O)CO4)C(=O)O1)C2 (centres unmarked) [Example 256, 6-[5-[2-[(1-Chloro-4-fluoro-3-methyl-6,7-dihydro-5H-cyclopenta[c]pyridin-6-yl)methylamino]ethyl]-2-oxo-1,3-oxazolidin-3-yl]-4H-pyrido[3,2-b][1,4]oxazin-3-one] | < 97.7 | –
13 | Cc1nc(C)c2c(c1F)CC(CNCCC1CN(c3cnc4c(n3)NC(=O)CO4)C(=O)O1)C2 (centres unmarked) [Example 352, 6-[5-[2-[(4-fluoro-1,3-dimethyl-6,7-dihydro-5H-cyclopenta[c]pyridin-6-yl)methylamino]ethyl]-2-oxo-1,3-oxazolidin-3-yl]-4H-pyrazino[2,3-b][1,4]oxazin-3-one; formic acid] | < 97.7 | –
14 | C[C@@H](N)COc1cc(F)c2c(c1)CC(CN1CCC3(CC1)CN(c1cnc4c(n1)NC(=O)CO4)C(=O)O3)C2 (stereo partly drawn) [Example 357, 6-[8-[[6-[(2R)-2-aminopropoxy]-4-fluoro-2,3-dihydro-1H-inden-2-yl]methyl]-2-oxo-1-oxa-3,8-diazaspiro[4.5]decan-3-yl]-4H-pyrazino[2,3-b][1,4]oxazin-3-one; formic acid] | < 97.7 | –
15 | N#Cc1cccc2c1C(O)C(CNCCC1CN(c3ccc4c(n3)NC(=O)CS4)C(=O)O1)C2 (racemic) [Example 152, rac-2,3-trans-3-hydroxy-2-[[2-[2-oxo-3-(3-oxo-4H-pyrido[3,2-b][1,4]thiazin-6-yl)-1,3-oxazolidin-5-yl]ethylamino]methyl]-2,3-dihydro-1H-indene-4-carbonitrile; formic acid] | 149 | –
16 | NC(=O)COc1cc(F)c2c(c1F)CC(CNCCC1CN(c3cnc4c(n3)NC(=O)CO4)C(=O)O1)C2 (centres unmarked) [Example 312, 2-[[4,7-difluoro-2-[[2-[2-oxo-3-(3-oxo-4H-pyrazino[2,3-b][1,4]oxazin-6-yl)-1,3-oxazolidin-5-yl]ethylamino]methyl]-2,3-dihydro-1H-inden-5-yl]oxy]acetamide] | < 97.7 | –
17 | NC1(COc2cc(F)c3c(c2)CC(CN2CCC4(CC2)CN(c2cnc5c(n2)NC(=O)CO5)C(=O)O4)C3)CC1 (centres unmarked) [Example 257, 6-[8-[[6-[(1-Aminocyclopropyl)methoxy]-4-fluoro-2,3-dihydro-1H-inden-2-yl]methyl]-2-oxo-1-oxa-3,8-diazaspiro[4.5]decan-3-yl]-4H-pyrazino[2,3-b][1,4]oxazin-3-one; formic acid] | < 97.7 | –
18 | Cc1ncc(F)c2c1CC(CN1CCC3(CN(c4ccc5c(n4)NC(=O)CO5)C(=O)O3)C(CN)C1)C2 (racemic) [Example 250, 6-[rac-5,6-trans-6-(Aminomethyl)-8-[(4-fluoro-1-methyl-6,7-dihydro-5H-cyclopenta[c]pyridin-6-yl)methyl]-2-oxo-1-oxa-3,8-diazaspiro[4.5]decan-3-yl]-4H-pyrido[3,2-b][1,4]oxazin-3-one] | – | 289
19 | CNC(=O)COc1ccc2c(c1Cl)CC(CNCCC1CN(c3ccc4c(n3)NC(=O)CO4)C(=O)O1)C2 (centres unmarked) [Example 108, 2-[[4-chloro-2-[[2-[2-oxo-3-(3-oxo-4H-pyrido[3,2-b][1,4]oxazin-6-yl)-1,3-oxazolidin-5-yl]ethylamino]methyl]-2,3-dihydro-1H-inden-5-yl]oxy]-N-methylacetamide] | < 97.7 | –
20 | CC(N)COc1cc(F)c2c(c1)CC(CNCCC1CN(c3ccc4c(n3)NC(=O)CO4)C(=O)O1)C2 (centres unmarked) [Example 154, 6-[5-[2-[[6-(2-aminopropoxy)-4-fluoro-2,3-dihydro-1H-inden-2-yl]methylamino]ethyl]-2-oxo-1,3-oxazolidin-3-yl]-4H-pyrido[3,2-b][1,4]oxazin-3-one] | < 97.7 | –
21 | Cc1ncc(Cl)c2c1CC(CNCCC1CN(c3cnc4c(n3)NC(=O)CO4)C(=O)O1)C2 (centres unmarked) [Example 60, 6-[5-[2-[(4-chloro-1-methyl-6,7-dihydro-5H-cyclopenta[c]pyridin-6-yl)methylamino]ethyl]-2-oxo-1,3-oxazolidin-3-yl]-4H-pyrazino[2,3-b][1,4]oxazin-3-one; formic acid] | < 97.7 | –
22 | Cc1nc(Cl)c(F)c2c1CC(CNCCC1CN(c3cnc4c(n3)NC(=O)CO4)C(=O)O1)C2 (centres unmarked) [Example 398, 6-[5-[2-[(3-chloro-4-fluoro-1-methyl-6,7-dihydro-5H-cyclopenta[c]pyridin-6-yl)methylamino]ethyl]-2-oxo-1,3-oxazolidin-3-yl]-4H-pyrazino[2,3-b][1,4]oxazin-3-one] | < 97.7 | –
23 | COc1ncc(F)c2c1CC(CNCCC1CN(c3cnc4c(n3)NC(=O)CO4)C(=O)O1)C2 (centres unmarked) [Example 71, 6-[5-[2-[(4-fluoro-1-methoxy-6,7-dihydro-5H-cyclopenta[c]pyridin-6-yl)methylamino]ethyl]-2-oxo-oxazolidin-3-yl]-4H-pyrazino[2,3-b][1,4]oxazin-3-one] | < 97.7 | –
24 | N#Cc1cccc2c1CC(CCN1CC3(C1)CN(c1ccc4c(n1)NC(=O)CO4)C(=O)O3)C2 (centres unmarked) [Example 33, 2-[2-[6-oxo-7-(3-oxo-4H-pyrido[3,2-b][1,4]oxazin-6-yl)-5-oxa-2,7-diazaspiro[3.4]octan-2-yl]ethyl]-2,3-dihydro-1H-indene-4-carbonitrile] | < 97.7 | –
25 | O=C1COc2ccc(N3CC(CCCNC4Cc5ccnc(Cl)c5C4)OC3=O)nc2N1 (centres unmarked) [Example 92, 6-[5-[3-[(1-chloro-6,7-dihydro-5H-cyclopenta[c]pyridin-6-yl)amino]propyl]-2-oxo-1,3-oxazolidin-3-yl]-4H-pyrido[3,2-b][1,4]oxazin-3-one] | 373 | –
26 | CC(C)(CC1CN(c2ccc3c(n2)NC(=O)CO3)C(=O)O1)NCC1Cc2cccc(C#N)c2C1 (centres unmarked) [Example 29, 2-[[[2-methyl-1-[2-oxo-3-(3-oxo-4H-pyrido[3,2-b][1,4]oxazin-6-yl)-1,3-oxazolidin-5-yl]propan-2-yl]amino]methyl]-2,3-dihydro-1H-indene-4-carbonitrile] | 945 | –
